Data: ChEMBL document CHEMBL5223098, “Prodrugs of pyrophosphates and bisphosphonates: disguising phosphorus oxyanions” (RSC Med Chem, 2022)
One block for each compound: values may come before it.

Tests used:
[1] = Half-life of the compound in 80% human serum by HPLC analysis; type: ADME, cell-free; details: 80% serum
[2] = Apparent partition coefficient, logPapp of the compound in pH 7.4 phosphate buffer incubated for 30 mins by HPLC analysis; type: physicochemical
[3] = Half-life of the compound in pH 7.4 phosphate buffer by HPLC analysis; type: physicochemical
[4] = Half-life of the compound in pH 2.0 phosphate buffer by HPLC analysis; type: physicochemical
[5] = 1-Octanol/phosphate buffer apparent partition coefficient, logPapp of the compound at pH 7.4 by shake-flask method; type: physicochemical
[6] = Half-life of the compound in 10% rabbit liver homogenate by HPLC analysis; type: ADME, tissue-based, Oryctolagus cuniculus; details: 10% liver homogenate
[7] = Half-life of the compound in pH 5.0 phosphate buffer by HPLC analysis; type: physicochemical
[8] = Octanol-water partition coefficient, logP of the compound by shake-flask method; type: physicochemical
[9] = Apparent partition coefficient, logPapp of the compound by HPLC analysis; type: physicochemical; details: octanol/water
[10] = 1-Octanol/phosphate buffer apparent partition coefficient, logPapp of the compound by shake-flask method; type: physicochemical
[11] = Half-life of the compound in human serum by HPLC analysis; type: ADME, cell-free
[12] = Half-life of the compound in pH 7.3 PBS buffer; type: physicochemical
[13] = Half-life of the compound in human CEM/0 cell extract at pH 6.9; type: ADME, CCRF-CEM
[14] = Half life of the compound in pH 7.0 TEAA buffer; type: physicochemical
[15] = Half life of the compound in RPMI medium; type: physicochemical
[16] = system: Human immunodeficiency virus 2; experiment: Antiviral activity against HIV2 infected in human CEM-TK(-) cells assessed as inhibition of viral replication incubated for 4 to 5 days by microscopic analysis; type: functional, organism-based; details: Human immunodeficiency virus 2, CEM-TK(-)
[17] = system: Human immunodeficiency virus 2; experiment: Potency index, ratio of d4T EC50 to test compound EC50 for antiviral activity against HIV2 infected in human CEM-TK(-) cells assessed as inhibition of viral replication incubated for 4 to 5 days by microscopic analysis; type: functional; details: time 4-5 day
[18] = Time for quantitative release of etidronate in 10% rabbit liver homogenate; details: 10% liver homogenate

Structure (SMILES): CC(C)(C)C(=O)OP(=O)(O)C(Cl)(Cl)P(=O)(O)OC(=O)C(C)(C)C
half-life [1]: 3.3 h
logD at 0.5 h [2]: -2.3

Structure (SMILES): CC(=O)OP(=O)(O)C(Cl)(Cl)P(=O)(O)OC(C)=O
half-life [3]: 15.2 h
half-life [4]: 0.75 h
logD at 0.5 h [2]: -2.3

Structure (SMILES): O=C(OP(=O)(O)C(Cl)(Cl)P(=O)(O)OC(=O)c1ccccc1)c1ccccc1
logD at 0.5 h [2]: -2.3

Structure (SMILES): CCCC(=O)OP(=O)(O)C(Cl)(Cl)P(=O)(O)OC(=O)CCC
half-life [3]: 15.2 h
half-life [4]: 0.75 h
logD at 0.5 h [2]: -2.3

Structure (SMILES): CC(C)(C)C(=O)OCOP(=O)(O)C(Cl)(Cl)P(=O)(O)OCOC(=O)C(C)(C)C
logD [5]: -2.1
half-life [6]: 0.233 h

Structure (SMILES): CC(C)(C)C(=O)OCOP(=O)(OCOC(=O)C(C)(C)C)C(Cl)(Cl)P(=O)(OCOC(=O)C(C)(C)C)OCOC(=O)C(C)(C)C
logD [5]: 7.4

Structure (SMILES): CC(C)(C)C(=O)OCOP(=O)(O)C(Cl)(Cl)P(=O)(OCOC(=O)C(C)(C)C)OCOC(=O)C(C)(C)C
logD [5]: 1.6
half-life [7]: > 1 h
half-life [3]: > 1 h
half-life [6]: 0.0183 h

Structure (SMILES): COc1ccc(OP(=O)(O)C(O)(c2cccc(Br)c2)P(=O)(O)Oc2ccc(OC)cc2)cc1 (stereo not drawn)
logP [8]: -0.31

Structure (SMILES): CC(=O)OC(C)(P(=O)(OCOC(=O)C(C)(C)C)OCOC(=O)C(C)(C)C)P(=O)(OCOC(=O)C(C)(C)C)OCOC(=O)C(C)(C)C
logD [9]: 7.4

Structure (SMILES): CC(=O)OC(C)(P(=O)(O)OCOC(=O)C(C)(C)C)P(=O)(OCOC(=O)C(C)(C)C)OCOC(=O)C(C)(C)C (stereo not drawn)
half-life [7]: 252 h
half-life [3]: 163 h
half-life [6]: 0.045 h
logD [10]: 0.6
half-life [11]: 4.8 h

Structure (SMILES): CC(O)(P(=O)(O)O)P(=O)(O)O [ETIDRONIC ACID]
time to quantitative release [18]: 3300 min

Now from value to compound, other results behind:

half-life [12]: 17 h
half-life [13]: 2 min
Structure (SMILES): CC(=O)Oc1ccc(COP(=O)(OCc2ccc(OC(C)=O)cc2)OP(=O)(O)OC[C@H]2O[C@@H](n3cc(C)c(=O)[nH]c3=O)C[C@@H]2N=[N+]=[N-])cc1

half-life [14]: 114 h
half-life [15]: 1.7 h
Structure (SMILES): CCCCCCCCCCCCCC(=O)OP(=O)(O)OP(=O)(O)OC[C@H]1O[C@@H](n2cc(C)c(=O)[nH]c2=O)C[C@@H]1N=[N+]=[N-]

EC50 [16]: 850 nM
Structure (SMILES): Cc1cn([C@H]2C=C[C@@H](COP(=O)(O)OP(=O)(OCc3ccc(OC(=O)c4ccccc4)cc3)OCc3ccc(OC(=O)c4ccccc4)cc3)O2)c(=O)[nH]c1=O
Ratio EC50 [17]: 82

EC50 [16]: 2600 nM
Structure (SMILES): CCCCCCCC(=O)Oc1ccc(COP(=O)(OCc2ccc(OC(=O)CCCCCCC)cc2)OP(=O)(O)OC[C@@H]2C=C[C@H](n3cc(C)c(=O)[nH]c3=O)O2)cc1
Ratio EC50 [17]: 27

EC50 [16]: 70000 nM
Structure (SMILES): Cc1cn([C@H]2C=C[C@@H](CO)O2)c(=O)[nH]c1=O [STAVUDINE]
